# Test results: US11236045B2, “Substituted sulfoximine compounds” (CADILA HEALTHCARE LIMITED, priority 2017, dated 2022)
# System: IL-1β
# Experiment: In vitro IL-1β inhibition in PMA-differentiated, LPS-primed, ATP-stimulated THP1 cells
# Assay type: cell-based
# Conditions: Homo sapiens, THP-1; THP1 monocytes differentiated with PMA, primed with 500 ng/ml LPS 4 hrs, compound 30 min, 5 mM ATP 1 hr; IL-1b in supernatant; read-out: in vitro IL-1β inhibitory activity IC50
# Method: THP1 ([…]) monocytes were differentiated with PMA (Phorbol 12-myristate 13-acetate) (100 ng/ml) and incubated at 37° C. for 20 h in presence of 5% CO2. 2×10^5 differentiated cells were plated per well of 96 well tissue culture plates. The cells were primed using 500 ng/ml Lipopolysaccharide and incubating for 4 hrs under the same condition. The cells were then treated with various concentrations of the compounds for 30 min followed by treatment with 5 mM ATP for 1 hr. The supernatants were collected and analysed by IL-1b (Mabtech Cat #3415-1H-20) or TNF-a (Mabtech; Cat #3510-1H-20) detection kit. The data were analyzed using GraphPad Prism V7.0. Dose Response Curve (DRC) was constructed to determine the IC50 value by fitting percentage cell survival data to the GraphPad Prism using nonlinear regression analysis.
row,IC50 [nM],SMILES
1,12,"CC(C)(O)c1ccc(S(=O)(=NC#N)NC(=O)Nc2c3c(cc4c2CCC4)CCC3)cc1 (centres unmarked) [Example 17, N′-cyano-N-((1,2,3,5,6,7-hexahydro-s-indacen-4-yl)carbamoyl)-4-(2-hydroxypropan-2-yl)benzenesulfonimidamide]"
2,15,"N#CN=S(=O)(NC(=O)Nc1c2c(cc3c1CCC3)CCC2)c1cccc([N+](=O)[O-])c1 (centres unmarked) [Example 18, N′-cyano-N-((1,2,3,5,6,7-hexahydro-s-indacen-4-yl)carbamoyl)-3-nitrobenzenesulfonimidamide]"
3,23,"COc1ccc(S(=O)(=NC#N)NC(=O)Nc2c3c(cc4c2CCC4)CCC3)cc1 (centres unmarked) [Example 19, N′-cyano-N-((1,2,3,5,6,7-hexahydro-s-indacen-4-yl)carbamoyl)-4-methoxybenzenesulfonimidamide]"
4,62,"N#CN=S(=O)(NC(=O)Nc1c2c(cc3c1CCC3)CCC2)c1ccc(F)cc1 (centres unmarked) [Example 21, N′-cyano-4-fluoro-N-((1,2,3,5,6,7-hexahydro-s-indacen-4-yl)carbamoyl)benzenesulfonimidamide]"
5,34,"COc1ccc(S(=O)(=NC#N)NC(=O)Nc2c3c(cc4c2CCC4)CCC3)cn1 (centres unmarked) [Example 24, N′-cyano-N-((1,2,3,5,6,7-hexahydro-s-indacen-4-yl)carbamoyl)-6-methoxypyridine-3-sulfonimidamide]"
6,23,"N#CN=S(=O)(NC(=O)Nc1c2c(cc3c1CCC3)CCC2)c1ccc(Cl)cc1 (centres unmarked) [Example 26, 4-chloro-N′-cyano-N-((1,2,3,5,6,7-hexahydro-s-indacen-4-yl)carbamoyl)benzenesulfonimidamide]"
7,27,"N#CN=S(=O)(NC(=O)Nc1c2c(cc3c1CCC3)CCC2)c1ccc(Br)cc1 (centres unmarked) [Example 27, 4-bromo-N′-cyano-N-((1,2,3,5,6,7-hexahydro-s-indacen-4-yl)carbamoyl)benzenesulfonimidamide]"
8,32,"N#CN=S(=O)(NC(=O)Nc1c2c(cc3c1CCC3)CCC2)c1ccc(C(F)(F)F)cc1 (centres unmarked) [Example 29, N′-cyano-N-((1,2,3,5,6,7-hexahydro-s-indacen-4-yl)carbamoyl)-4-(trifluoromethyl)-benzenesulfonimidamide]"
9,3,"CC(C)(O)c1cccc(S(=O)(=NC#N)NC(=O)Nc2c3c(cc4c2CCC4)CCC3)c1 (centres unmarked) [Example 34, N′-cyano-N-((1,2,3,5,6,7-hexahydro-s-indacen-4-yl)carbamoyl)-3-(2-hydroxypropan-2-yl)benzenesulfonimidamide]"
10,13,"N#CN=S(=O)(NC(=O)Nc1c2c(cc3c1CCC3)CCC2)c1ccc(C2(O)COC2)cc1 (centres unmarked) [Example 35, N′-cyano-N-((1,2,3,5,6,7-hexahydro-s-indacen-4-yl)carbamoyl)-4-(3-hydroxyoxetan-3-yl)benzenesulfonimidamide]"
11,32,"C=C(C)c1coc(S(=O)(=NC#N)NC(=O)Nc2c3c(cc4c2CCC4)CCC3)c1 (centres unmarked) [Example 36, N′-cyano-N-((1,2,3,5,6,7-hexahydro-s-indacen-4-yl)carbamoyl)-4-(prop-1-en-2-yl)furan-2-sulfonimidamide]"
12,5.6,"N#CN=S(=O)(NC(=O)Nc1c2c(cc3c1CCC3)CCC2)c1ccc(Br)s1 (centres unmarked) [Example 37, 5-bromo-N′-cyano-N-((1,2,3,5,6,7-hexahydro-s-indacen-4-yl)carbamoyl)thiophene-2-sulfonimidamide]"
13,17,"COc1cccc(S(=O)(=NC#N)NC(=O)Nc2c3c(cc4c2CCC4)CCC3)c1 (centres unmarked) [Example 38, N′-cyano-N-((1,2,3,5,6,7-hexahydro-s-indacen-4-yl)carbamoyl)-3-methoxybenzenesulfonimidamide]"
14,3.3,"CC(C)(O)c1coc(S(=O)(=NC#N)NC(=O)Nc2c3c(cc4c2CCC4)CCC3)c1 (centres unmarked) [Example 39, N′-cyano-N-((1,2,3,5,6,7-hexahydro-s-indacen-4-yl)carbamoyl)-4-(2-hydroxypropan-2-yl)furan-2-sulfonimidamide]"
15,13,"N#CN=S(=O)(NC(=O)Nc1c2c(cc3c1CCC3)CCC2)c1ccc2c(c1)OCCO2 (centres unmarked) [Example 40, N′-cyano-N-((1,2,3,5,6,7-hexahydro-s-indacen-4-yl)carbamoyl)-2,3-dihydrobenzo[b][1,4]dioxine-6-sulfonimidamide]"
16,4.8,"CC(C)(O)c1ccc(S(=O)(=NC#N)NC(=O)Nc2c3c(cc4c2CCC4)CCC3)s1 (centres unmarked) [Example 41, N′-cyano-N-((1,2,3,5,6,7-hexahydro-s-indacen-4-yl)carbamoyl)-5-(2-hydroxypropan-2-yl)thiophene-2-sulfonimidamide]"
17,2.4,"Cc1ccc(F)c(S(=O)(=NC#N)NC(=O)Nc2c3c(cc4c2CCC4)CCC3)c1 (centres unmarked) [Example 42, N′-cyano-2-fluoro-N-((1,2,3,5,6,7-hexahydro-s-indacen-4-yl)carbamoyl)-5-methylbenzene-sulfonimidamide]"
18,27,"N#CN=S(=O)(NC(=O)Nc1c2c(cc3c1CCC3)CCC2)c1cccc(C(O)(C(F)(F)F)C(F)(F)F)c1 (centres unmarked) [Example 43, N′-cyano-3-(1,1,1,3,3,3-hexafluoro-2-hydroxypropan-2-yl)-N-((1,2,3,5,6,7-hexahydro-s-indacen-4-yl)carbamoyl)benzenesulfonimidamide]"
19,63,"N#CN=S(=O)(NC(=O)Nc1c2c(cc3c1CCC3)CCC2)c1cc(F)cc(F)c1 (centres unmarked) [Example 44, N′-cyano-3,5-difluoro-N-((1,2,3,5,6,7-hexahydro-s-indacen-4-yl)carbamoyl)benzenesulfonimidamide]"
20,23,"N#CN=S(=O)(NC(=O)Nc1c2c(cc3c1CCC3)CCC2)c1ccc(F)cc1F (centres unmarked) [Example 45, N′-cyano-2,4-difluoro-N-((1,2,3,5,6,7-hexahydro-s-indacen-4-yl)carbamoyl)benzenesulfonimidamide]"
21,3.5,"N#CN=S(=O)(Cc1ccccc1)NC(=O)Nc1c2c(cc3c1CCC3)CCC2 (centres unmarked) [Example 48, N′-cyano-N-((1,2,3,5,6,7-hexahydro-s-indacen-4-yl)carbamoyl)-1-phenylmethanesulfonimidamide]"
22,19,"N#CN=S(=O)(NC(=O)Nc1c2c(cc3c1CCC3)CCC2)c1cccs1 (centres unmarked) [Example 51, N′-cyano-N-((1,2,3,5,6,7-hexahydro-s-indacen-4-yl)carbamoyl)thiophene-2-sulfonimidamide]"
23,4.4,"COc1ccc(S(=O)(=NC#N)NC(=O)Nc2c3c(cc4c2CCC4)CCC3)cc1OC (centres unmarked) [Example 52, N′-cyano-N-((1,2,3,5,6,7-hexahydro-s-indacen-4-yl)carbamoyl)-3,4-dimethoxybenzene-sulfonimidamide]"
24,45,"Cc1cccc(S(=O)(=NC#N)NC(=O)Nc2c3c(cc4c2CCC4)CCC3)n1 (centres unmarked) [Example 53, N′-cyano-N-((1,2,3,5,6,7-hexahydro-s-indacen-4-yl)carbamoyl)-6-methylpyridine-2-sulfonimidamide]"
25,38,"N#CN=S(=O)(NC(=O)Nc1c2c(cc3c1CCC3)CCC2)c1cccc(F)c1 (centres unmarked) [Example 58, N′-cyano-3-fluoro-N-((1,2,3,5,6,7-hexahydro-s-indacen-4-yl)carbamoyl)benzenesulfonimidamide]"
26,7.8,"CC(C)(O)c1cc(S(=O)(=NC#N)NC(=O)Nc2c3c(cc4c2CCC4)CCC3)ccc1F (centres unmarked) [Example 63, N′-cyano-4-fluoro-N-((1,2,3,5,6,7-hexahydro-s-indacen-4-yl)carbamoyl)-3-(2-hydroxypropan-2-yl)benzenesulfonimidamide]"
27,7.7,"CC(C)(O)c1ccc(F)c(S(=O)(=NC#N)NC(=O)Nc2c3c(cc4c2CCC4)CCC3)c1 (centres unmarked) [Example 64, N′-cyano-2-fluoro-N-((1,2,3,5,6,7-hexahydro-s-indacen-4-yl)carbamoyl)-5-(2-hydroxypropan-2-yl)benzenesulfonimidamide]"
28,1.26,"CC(C)(O)c1cncc(S(=O)(=NC#N)NC(=O)Nc2c3c(cc4c2CCC4)CCC3)c1 (centres unmarked) [Example 65, N′-cyano-N-((1,2,3,5,6,7-hexahydro-s-indacen-4-yl)carbamoyl)-5-(2-hydroxypropan-2-yl)pyridine-3-sulfonimidamide]"
29,4,"N#CN=S(=O)(Cc1ccc(C#N)cc1)NC(=O)Nc1c2c(cc3c1CCC3)CCC2 (centres unmarked) [Example 66, N′-cyano-1-(4-cyanophenyl)-N-((1,2,3,5,6,7-hexahydro-s-indacen-4-yl)carbamoyl)-methanesulfonimidamide]"
